Data on three molecules can be found in patent US10912740B2, “Treating hepatitis C with cannabidiol” (Vilotos Pharmaceuticals, Inc., priority 2017, dated 2021).

One series concerns hepatitis C virus. Kind of series: Dose-response assay against hepatitis C virus (EC50). To be noted: for EC50: Hepatitis C virus, read-out: ES50 (EC50 against hepatitis C virus). Type of series: cell-based. On the procedure: (§1) Huh7.5 cells are grown in Dulbecco's modified essential media (DMEM), 10% fetal bovine serum (FBS), 1% penicillin-streptomycin (pen-strep), 1% Non-essential amino acids (NEAA) in a 5% CO2 incubator at 37° C. Huh7.5 cells were seeded at 1×10^4 cells per well into 96-well plates according to Southern Research Institute standard format. The test article was serially diluted with DMEM plus 5% FBS. The diluted compound in the amount of 50 μl was mixed with equal volume of cell culture-derived HCV (HCVcc), then applied to appropriate wells in the plate. Human interferon alpha-2b (rIFNα-2b) was included as a positive control compound. After 72 hr incubation at 37° C., the cells were lysed for measurement of luciferase activity using Renilla Luciferase Assay System (Promega) according to manufacturer's instruction. The number of cells in each well were determined by CytoTox-1 reagent (Promega). Test articles were tested with 6 serial dilution in triplicate to derive, if applicable, IC50 and IC90 (concentration inhibiting HCVcc infectivity by 50% and 90%, respectively), TC50 (concentration decreasing cell viability by 50%) and SI (selective index: TC50/IC50) values. In the replicon assay, Sub-confluent cultures of the ET line were plated out into 96-well plates that are dedicated for the analysis of cell numbers (cytotoxicity) or antiviral activity and the next day drugs were added to the appropriate wells. Cells were processed 72 hours later when the cells were still sub-confluent. After six half-log serial dilutions of the compound, the applicable EC50 (concentration inhibiting HCV replicon by 50%), EC90 (concentration inhibiting HCV replicon by 90%), IC50 (concentration decreasing cell viability by […]) and SI (selective index: […]) values were derived. HCV replicon levels are assessed as replicon derived Luc activity. The toxic concentration of drug that reduced cell numbers was assessed by the CytoTox-1 cell proliferation assay (Promega), a fluorometric assay of cell numbers (and cytotoxicity). […]

Another series deals with HCVcc. Kind of series: Anti hepatitis C activity assay: HCVcc infectivity in Huh7.5 cells, luciferase readout, single dose. Type of series: cell-based, Hepatitis C virus. On the procedure:
as §1

Series [1] is described as follows: Cytotoxicity (CC50) in the HCV dose-response assay. To be noted: human, Huh7.5 cells. In kind it is cell-based. The procedure: (§2) Huh7.5 cells are grown in Dulbecco's modified essential media (DMEM), 10% fetal bovine serum (FBS), 1% penicillin-streptomycin (pen-strep), 1% Non-essential amino acids (NEAA) in a 5% CO2 incubator at 37° C. Huh7.5 cells were seeded at 1×10^4 cells per well into 96-well plates according to Southern Research Institute standard format. The test article was serially diluted with DMEM plus 5% FBS. The diluted compound in the amount of 50 μl was mixed with equal volume of cell culture-derived HCV (HCVcc), then applied to appropriate wells in the plate. Human interferon alpha-2b (rIFNα-2b) was included as a positive control compound. After 72 hr incubation at 37° C., the cells were lysed for measurement of luciferase activity using Renilla Luciferase Assay System (Promega) according to manufacturer's instruction. The number of cells in each well were determined by CytoTox-1 reagent (Promega). […] HCV replicon levels are assessed as replicon derived Luc activity. The toxic concentration of drug that reduced cell numbers was assessed by the CytoTox-1 cell proliferation assay (Promega), a fluorometric assay of cell numbers (and cytotoxicity). […]

The subject of another series is HBV. Briefly: Anti-hepatitis B assay: extracellular HBV DNA by TaqMan PCR from HepG2 2.2.15 cells. In kind it is cell-based, Hepatitis B virus (wild-type ayw1 strain). The note with it: for Percentage virus inhibition: HBV, HepG2 2.2.15 cells, six days. The source says: (§3) The pure cannabis cannabinoid CBD of FIG. 2 was subjected to a modified anti-hepatitis B assay. [Korba B E, Gerin J L, Use Of A Standardized Cell Culture Assay To Assess Activities Of Nucleoside Analogs Against Hepatitis B Virus Replication, Antiviral Res, 19:55-70 (1992); Korba B E, Milman G., A Cell Culture Assay For Compounds Which Inhibit Hepatitis B Virus Replication, Antiviral Res 1991; 15:217-28]. The modifications allowed use in real time quantitative polymerase chain reaction (PCR) (TaqMan) to measure extracellular HBV DNA copy number associated with virions released from HepG2 2.2.15 cells. The HepG2 2.2.15 cell line is a stable cell line producing high levels of the wild-type ayw1 strain of HBV. Antiviral compounds blocking any later step of viral replication such as transcription, translation, pregenomeencapsidation, reverse transcription, particle assembly, and release can be identified and characterized using this cell line. In brief, HepG2 2.2.15 cells are plated in 96-well microtiter plates. Only the interior wells were utilized to reduce “edge effects” observed during cell culture; the exterior wells were filled with complete medium to help minimize sample evaporation. After incubation with 5% CO2 atmosphere at 37° C. for 16-24 h, the confluent monolayer of HepG2 2.2.15 cells was washed and the medium was replaced with complete medium containing test compounds at a single concentration of 10 μM. Three days later, the culture medium was replaced with fresh medium and test compounds at a single concentration of 10 μM. Six days following the initial administration of the test compounds, the cell culture supernatant was collected, treated with pronase and DNAse, and then used in a real-time quantitative TaqMan PCR assay. Antiviral activity was determined by calculating the reduction in HBV DNA levels compared to untreated virus control samples. Compound cytotoxicity was determined using MTS (CellTiter 96 Reagent, Promega) to measure cell viability as described above.

Series [2] is described as follows: Compound cytotoxicity (MTS cell viability) in the anti-hepatitis B assay. The note with it: human, HepG2 2.2.15 cells (stable HBV-producing line), HBV assay, HepG2 2.2.15 cells. In kind it is cell-based.
Text: as §3

For a further series, the system named is HepG2 2.2.15 cells. The description is as above. Type of series: cell-based. To be noted: cells used to culture HBV.
Text: as §3

Series [3] is described as follows: Cytotoxicity (CytoTox-1 cell number) in the HCVcc assay. In kind it is cell-based. The note with it: human, Huh7.5 cells infected with HCVcc; HCVcc assay, Huh7.5 cells; CBD at 10 μM. The procedure:
as §2

The subject of the next series is Huh7.5 cells. The series is described as above. Type of series: cell-based. The note with it: cells used to culture HCV. The procedure:
as §2

Entries after “also recorded” stand apart in the source; their conditions may differ.

With `C=C(C)[C@@H]1CCC(C)=C[C@H]1c1c(O)cc(CCCCC)cc1O` [CBD, Cannabidiol], the EC50 – broadly, the concentration at which the effect is half-maximal – in the series on hepatitis C virus was determined as 3.16 µM. In addition, in the series on hepatitis C virus (dose-response assay (Table 2)), the “Inhibition of the HCV virus in the dose-response assay (in words)” value is “dose-dependent inhibition”. Also, the Percentage virus inhibition came out at 84.6% in the series on HCVcc (HCVcc, CBD at single concentration 10 μM, Huh7.5 cells, 72 hr, 10 µM) and 0% in the series on HBV (CBD at single dose 10 (title uM, row head pM)). In addition, in the series with HCVcc (Hepatitis C virus, Huh7.5, 72 h, HCVcc, CBD at single concentration 10 μM, Huh7.5 cells, 72 hr, read-out: Percentage virus inhibition), the inhibition (in general, the percentage by which the read-out fell short of the control) at 10 µM is 86.4%. The “Activity against HCV in vitro / inhibition of viral replication (in words)” value in the series with HCVcc (in vitro, single-dose assay) is “active against HCV”. Moreover, the midpoint of cytotoxicity in series [1], the CC50 at 72 h, lay at 15.7 ± 0.25 µM. In the series with HBV (in vitro, single-dose assay), the “Activity against HBV in vitro / inhibition of viral replication (in words)” value is “not against HBV; also recorded: not active”. In series [2] (CBD at 10 (title uM, row head pM)), this molecule came in with a cytotoxicity at 6 days, 10 µM of 65.7%. Besides, in the series on HepG2 2.2.15 cells, the “Cytotoxicity against HepG2 2.2.15 cells (in words)” value is “significant cytotoxicity”. The cytotoxicity at 72 h, 10 µM in series [3] worked out at 2.7%. In addition, the “Toxicity against Huh7.5 cells (in words)” value in the series on Huh7.5 cells is reported as “minimal toxicity”.
Consider `Nc1ccn([C@@H]2CS[C@H](CO)O2)c(=O)n1` [Lamivudine, reference compound], for which the Percentage virus inhibition in the series with HBV (Lamivudine at 2 (row head pM)) is on record as 97.7%. Further, the cytotoxicity at 6 days, 2 µM (printed pM) in series [2] (Lamivudine at 2 (row head pM)) was found to be 0%.
For the molecule `CC(C)OC(=O)[C@H](C)N[P@](=O)(OC[C@H]1O[C@@H](n2ccc(=O)[nH]c2=O)[C@](C)(F)[C@@H]1O)Oc1ccccc1` [Sofosbuvir, reference compound], in the series with hepatitis C virus, the EC50 came to 0.055 ± 0.0104 µM. In addition, the CC50 (commonly the concentration giving 50% cytotoxicity) at 72 h in series [1] was above 10 µM.
